{"source": "patent US12527782B2", "about": "“Use of hexokinase 2/mitochondria-detaching compounds for treating hexokinase-2 (HK2)-expressing cancers” (Vidac Pharma Ltd., priority 2016, dated 2026)", "key": {"[1]": {"system": "Stomach GXF 214", "assay": "CFA, GXF 214", "type": "cell-based, human", "conditions": "PDX/CFA", "experimental": "(§1) CFA was performed by Charles River Laboratories (Freiburg, Germany) in 96-well plate format according to a modified two-layer soft agar assay. The origin of the tumor xenografts has been described (Fiebig et al. 1989, incorporated herein by reference). The list of tumors used in this study is detailed in Table 1."}, "[2]": {"system": "AK/cSCC mouse model of chronic UVB exposure", "assay": "AK/cSCC mouse model of chronic UVB exposure: histopathology and IHC of epidermis", "type": "in vivo", "conditions": "for HK2 protein levels in AK areas (IHC): 5% Formula C", "experimental": "(§2) The formulation ingredients for vehicle, 2.5%, and 5% Formula C ointment consisted of: 32% Gelucire44/14® (Gattefosse, Saint-Priest, France), and 68% combined Labrasol® (Gattefosse, Saint-Priest, France) with corresponding amount of Formula C (w/w). New ointments were prepared every 2 weeks. The 40% topical solution was prepared just prior to use by mixing (w/w) 60% propylene glycol (Sigma, St. Louis, MO, USA) with 40% Formula C.\nHistopathological analysis and IHC was performed according to standard protocols. Primary antibodies used: rabbit anti-HK1 and rabbit anti-HK2 (C35C4 and C64G5, CST, Danvers, MA), rabbit anti cleaved caspase 3 (PP229, Biocare Medical, Concord, CA), Secondary antibody was goat anti-Rabbit IgG(H+L) (474-1506, KPL, Gaithersburg, MD). Rabbit anti-CD3 (SP7), rabbit anti-F4/80 (SB-M3072, SB-M4152, Nordic Biosite, Taby, Sweden), mouse anti-Langerin/CD207 (DDX0361, Dendritics, Lyon, France). For these three primary antibodies, a polymer system was used as a secondary antibody (KDB-10046 and KDB-10007, Nordic Biosite, Taby, Sweden). Semi-quantitative analysis was done in a blinded manner by a single experienced pathologist scoring ×40 high power fields, 7 different fields per slide.\n(§3) The effect of Formula C on cell proliferation and apoptosis was tested in an AK/cSCC mouse model of chronic UVB exposure. Forty-eight SKH-1 hairless female mice were chronically exposed to UVB radiation for 16 weeks. By that time, more than 60% of the animals had developed at least one SCC lesion. Three days after the final irradiation dose, the mice were randomly assigned to 1 of 4 treatment groups (N=12 mice/group) and a 50-day treatment phase started. Treatment groups included: vehicle, 2.5% or 5% Formula C ointment applied once-daily for 50 days, or 40% Formula C topical solution applied once-daily for the first 5 days of every three-week cycle (total of three treatment cycles)."}, "[3]": {"system": "Leukemia (AML) LEXFAM THP-1", "assay": "CFA, LEXFAM THP-1", "type": "cell-based, human", "conditions": "Cell line/CFA", "experimental": "as §1"}, "[4]": {"target": "T1, HK1 association with the mitochondria (Homo sapiens, UniProt P19367)", "T1 construct": "human skin SCC A431 cells (which express both HK1 and HK2); endogenous in cells; host or cells: A431", "T1 sequence (P19367 whole entry)": "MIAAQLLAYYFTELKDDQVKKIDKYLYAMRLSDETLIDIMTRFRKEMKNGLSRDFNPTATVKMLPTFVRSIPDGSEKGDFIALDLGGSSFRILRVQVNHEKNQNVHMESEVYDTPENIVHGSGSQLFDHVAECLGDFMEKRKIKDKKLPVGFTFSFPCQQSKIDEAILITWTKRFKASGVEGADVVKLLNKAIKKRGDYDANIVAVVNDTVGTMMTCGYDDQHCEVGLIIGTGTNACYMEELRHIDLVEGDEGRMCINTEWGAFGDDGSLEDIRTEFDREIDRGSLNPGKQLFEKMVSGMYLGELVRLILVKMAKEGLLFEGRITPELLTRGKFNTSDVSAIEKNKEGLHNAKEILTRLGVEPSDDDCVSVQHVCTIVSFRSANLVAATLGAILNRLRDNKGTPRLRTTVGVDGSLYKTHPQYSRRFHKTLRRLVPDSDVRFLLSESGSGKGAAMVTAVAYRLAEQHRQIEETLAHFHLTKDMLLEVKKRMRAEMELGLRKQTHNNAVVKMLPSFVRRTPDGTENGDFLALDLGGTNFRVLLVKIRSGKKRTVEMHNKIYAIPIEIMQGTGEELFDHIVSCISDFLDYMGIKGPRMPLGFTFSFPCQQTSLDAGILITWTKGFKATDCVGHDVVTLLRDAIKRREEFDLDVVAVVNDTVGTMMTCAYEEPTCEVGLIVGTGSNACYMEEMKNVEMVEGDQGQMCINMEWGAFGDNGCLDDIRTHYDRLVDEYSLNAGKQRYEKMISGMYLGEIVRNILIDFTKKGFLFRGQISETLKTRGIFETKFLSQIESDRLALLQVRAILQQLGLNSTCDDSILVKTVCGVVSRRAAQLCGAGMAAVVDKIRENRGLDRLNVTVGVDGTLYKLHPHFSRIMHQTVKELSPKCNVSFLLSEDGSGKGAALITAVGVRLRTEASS", "assay": "Western Blot of mitochondrial fraction, HK1 in A431 cells", "type": "cell-based", "conditions": "similar experimental setup, data not shown", "experimental": "A431 cells were treated for 2 hours at 37° C. with various concentrations of Formula C in medium without FCS and 2 mM L-Gln. Mitochondria were isolated using Mitochondria Isolation Kit (Thermo Fisher Scientific, Rockford, IL) followed by a WB. Semi-quantification of the WB was done with Imagequant TL software v8.1 (GE healthcare Life Sciences, Little Chalfont, United Kingdom). TIM22 was used as a loading control for mitochondria. Cyclophilin A (PPIA) was used as a cytosolic marker.\nAntibodies used: anti-rabbit HK1 (C-20245) and HK2 (C-28765) from CST (Danvers, MA), anti-rabbit PPIA (ab41684, Abcam), anti-rabbit TIM22 (14927-1-AP, Proteintech Group Inc., Rosemont, IL), anti-rabbit Cytochrome C (PA1118, Boster Biological Technology, Pleasanton, CA). Detection was performed using secondary antibodies: peroxidase-conjugated Affinipure goat anti-rabbit IgG (H+L) or goat anti-mouse IgG (H+L) (111-035-003 and 115-035-003, Jackson ImmunoResearch, West Grove, PA), and development was using the ECL kit WesternBright™ ECL (K-12045-D10, Advansta, Menlo Park, California, USA)."}, "[5]": {"system": "Leukemia (BCLL) LEXFCL MEC-1", "assay": "CFA, LEXFCL MEC-1", "type": "cell-based, human", "conditions": "Cell line/CFA", "experimental": "as §1"}, "[6]": {"system": "Leukemia (BCLL) LEXFCM JURL-MK1", "assay": "CFA, LEXFCM JURL-MK1", "type": "cell-based, human", "conditions": "Cell line/CFA", "experimental": "as §1"}, "[7]": {"system": "Skin SCC VXF A-431", "assay": "CFA, VXF A-431", "type": "cell-based, human", "conditions": "Cell line/CFA", "experimental": "as §1"}, "[8]": {"system": "Leukemia (AML) LEXFAM MV4-11", "assay": "CFA, LEXFAM MV4-11", "type": "cell-based, human", "conditions": "Cell line/CFA", "experimental": "as §1"}, "[9]": {"system": "CTCL cell line Hut-78", "assay": "PrestoBlue cell viability, Hut-78", "type": "cell-based, human", "conditions": "72 hours", "experimental": "Cutaneous T-cell lymphoma (CTCL) cell lines MJ and Hut78 were purchased from ATCC (CRL-8294, and TIB-161, respectively). Cells were grown in Iscove's Modified Dulbecco's Media supplemented with 2 mM L-glutamine, 10% fetal bovine serum, 100 U/mL of penicillin and 0.1 mg/mL of streptomycin.\nCells (1-2×10^4) were seeded in 96-well plates and treated with Formula C. Cell viability was determined 72 hours later using PrestoBlue reagent according to manufacturer's instruction (Life Technologies). The percentage of viability was expressed according to the fluorescence emitted by Formula C-treated cells compared to DMSO-treated control cells. The florescence emission values at 590 nm were measured with the plate-reader Spark 10M—multimode microplate reader (TECAN)."}, "[10]": {"system": "Breast MAXF 857", "assay": "CFA, MAXF 857", "type": "cell-based, human", "conditions": "PDX/CFA", "experimental": "as §1"}, "[11]": {"system": "Lung (NSCLC, epidermoid) LXFE 772", "assay": "CFA, LXFE 772", "type": "cell-based, human", "conditions": "PDX/CFA", "experimental": "as §1"}, "[12]": {"system": "Breast MAXF 1322", "assay": "CFA, MAXF 1322", "type": "cell-based, human", "conditions": "PDX/CFA", "experimental": "as §1"}, "[13]": {"assay": "AK/cSCC mouse model of chronic UVB exposure: local and general tolerability", "type": "in vivo", "conditions": "UVB-exposed SKH-1 mice, Day 1 through Day 50", "experimental": "as §2, §3"}, "[14]": {"system": "Stomach GXF 97", "assay": "CFA, GXF 97", "type": "cell-based, human", "conditions": "PDX/CFA", "experimental": "as §1"}, "[15]": {"system": "Breast MAXF 574", "assay": "CFA, MAXF 574", "type": "cell-based, human", "conditions": "PDX/CFA", "experimental": "as §1"}}, "note": "pIC50: −log10 of the molar value. “Also recorded” adds a separate entry of the source.", "data": [{"compound": "CC/C=C\\CC1C(=O)CCC1CC(=O)Oc1cccc2cccnc12", "note": "(centres unmarked) [Formula C]", "values": [{"measurement": "pIC50", "setting": "[1]", "value": 5.71}, {"measurement": "cleaved caspase-3 positive cells (IHC), apoptosis in epidermis", "setting": "[2]; UVB-exposed SKH-1 mice, Day 50", "value": "induces apoptosis; also recorded: statistically significant induction of apoptosis"}, {"measurement": "mitotic index in AK regions of the skin (epidermis)", "setting": "[2]; UVB-exposed SKH-1 mice, Day 50, all Formula C treatment groups vs vehicle", "value": "reduces cell proliferation; also recorded: significantly reduced"}, {"measurement": "epidermal thickness (histopathology)", "setting": "[2]; UVB-exposed SKH-1 mice, topical treatment, data not shown", "value": "thinner epidermis"}, {"measurement": "HK2 staining in epidermis (IHC)", "setting": "[2]; UVB-exposed mice, 5% Formula C ointment, 50 days of treatment", "value": "decreases after 50 days; also recorded: HK2 staining levels are low"}, {"measurement": "HK2 protein levels in AK areas (IHC)", "setting": "[2]; UVB-exposed mice, 2 days of treatment, satellite study", "value": "dramatic decrease in HK2 protein levels"}, {"measurement": "HK2 protein levels in AK areas (IHC)", "setting": "[2]; UVB-exposed mice, one day of treatment, data not shown", "value": "did not show this effect"}, {"measurement": "pIC50", "setting": "[3]", "value": 5.66}, {"measurement": "HK1 association with the mitochondria", "setting": "[4]", "value": "not affected"}, {"measurement": "pIC50", "setting": "[5]", "value": 5.93}, {"measurement": "pIC50", "setting": "[6]", "value": 5.78}, {"measurement": "pIC50", "setting": "[7]", "value": 6.44}, {"measurement": "pIC50", "setting": "[8]", "value": 5.92}, {"measurement": "pIC50", "setting": "[9]", "value": 5.97}, {"measurement": "pIC50", "setting": "[10]", "value": 5.81}, {"measurement": "pIC50", "setting": "[11]", "value": 5.42}, {"measurement": "pIC50", "setting": "[12]", "value": 5.81}, {"measurement": "adverse local skin reactions", "setting": "[13]; 2.5%, 5% ointment or 40% topical solution", "value": "no adverse local skin reactions of any kind"}, {"measurement": "body weight abnormalities", "setting": "[13]", "value": "no abnormalities in body weight"}, {"measurement": "clinical signs", "setting": "[13]", "value": "no clinical signs"}, {"measurement": "erythema or edema", "setting": "[13]", "value": "no erythema or edema"}, {"measurement": "pIC50", "setting": "[14]", "value": 5.19}, {"measurement": "pIC50", "setting": "[15]", "value": 5.27}]}]}
